Assay results published in ChEMBL document CHEMBL4334471, “Discovery of 1,8-disubstituted-[1,2,3]triazolo[4,5-c]quinoline derivatives as a new class of Hippo signaling pathway inhibitors” (Bioorg Med Chem Lett, 2019).

Assays:
[1] = target: Serine/threonine-protein kinase BRSK1 (Homo sapiens) (UniProt Q8TDC3); assay: Inhibition of recombinant human BRSK1 ( 2 to end residues) assessed as residual activity at 10 uM using KKKVSRSGLYRSPSMPENLNRPR substrate incubated for 40 mins in presence of [gamma-33ATP] by scintillation counting based radiometry assay relative to control
[2] = target: Cyclin-dependent kinase 2/cyclin E1 (Homo sapiens) (UniProt P24864+P24941); assay: Inhibition of recombinant full length human CDK2/CyclinE assessed as residual activity at 10 uM using Histone H1 as substrate incubated for 40 mins in presence of [gamma-33ATP] by scintillation counting based radiometry assay relative to control; type: protein-complex assay
[3] = target: CDK12/Cyclin K (Homo sapiens) (UniProt O75909+Q9NYV4); assay: Inhibition of recombinant full length human CDK12/cyclinK assessed as residual activity at 10 uM using RSRSRSRSRSRSR as substrate incubated for 40 mins in presence of [gamma-33ATP] by scintillation counting based radiometry assay relative to control; type: protein-complex assay
Sequence of CDK12/Cyclin K (Homo sapiens) (O75909 whole entry, looked up, the tested form may be a part, canonical isoform): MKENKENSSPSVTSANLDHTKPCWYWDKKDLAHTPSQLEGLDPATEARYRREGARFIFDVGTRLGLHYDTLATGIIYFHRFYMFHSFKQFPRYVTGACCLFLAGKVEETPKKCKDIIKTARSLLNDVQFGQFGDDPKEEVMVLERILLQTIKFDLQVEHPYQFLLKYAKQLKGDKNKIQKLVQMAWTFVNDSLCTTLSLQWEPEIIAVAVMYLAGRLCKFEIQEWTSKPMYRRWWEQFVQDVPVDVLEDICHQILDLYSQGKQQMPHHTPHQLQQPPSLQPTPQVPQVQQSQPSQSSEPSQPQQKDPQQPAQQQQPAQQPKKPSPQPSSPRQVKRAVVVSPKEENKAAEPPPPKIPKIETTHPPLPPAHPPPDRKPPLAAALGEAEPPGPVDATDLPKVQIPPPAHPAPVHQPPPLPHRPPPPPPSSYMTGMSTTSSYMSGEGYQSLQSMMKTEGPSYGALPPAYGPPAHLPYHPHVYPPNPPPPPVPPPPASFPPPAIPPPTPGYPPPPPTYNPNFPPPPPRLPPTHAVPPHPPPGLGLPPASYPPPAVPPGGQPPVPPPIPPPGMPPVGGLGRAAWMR
Sequence of CDK12/Cyclin K (Homo sapiens) (Q9NYV4 whole entry, looked up, the tested form may be a part, canonical isoform): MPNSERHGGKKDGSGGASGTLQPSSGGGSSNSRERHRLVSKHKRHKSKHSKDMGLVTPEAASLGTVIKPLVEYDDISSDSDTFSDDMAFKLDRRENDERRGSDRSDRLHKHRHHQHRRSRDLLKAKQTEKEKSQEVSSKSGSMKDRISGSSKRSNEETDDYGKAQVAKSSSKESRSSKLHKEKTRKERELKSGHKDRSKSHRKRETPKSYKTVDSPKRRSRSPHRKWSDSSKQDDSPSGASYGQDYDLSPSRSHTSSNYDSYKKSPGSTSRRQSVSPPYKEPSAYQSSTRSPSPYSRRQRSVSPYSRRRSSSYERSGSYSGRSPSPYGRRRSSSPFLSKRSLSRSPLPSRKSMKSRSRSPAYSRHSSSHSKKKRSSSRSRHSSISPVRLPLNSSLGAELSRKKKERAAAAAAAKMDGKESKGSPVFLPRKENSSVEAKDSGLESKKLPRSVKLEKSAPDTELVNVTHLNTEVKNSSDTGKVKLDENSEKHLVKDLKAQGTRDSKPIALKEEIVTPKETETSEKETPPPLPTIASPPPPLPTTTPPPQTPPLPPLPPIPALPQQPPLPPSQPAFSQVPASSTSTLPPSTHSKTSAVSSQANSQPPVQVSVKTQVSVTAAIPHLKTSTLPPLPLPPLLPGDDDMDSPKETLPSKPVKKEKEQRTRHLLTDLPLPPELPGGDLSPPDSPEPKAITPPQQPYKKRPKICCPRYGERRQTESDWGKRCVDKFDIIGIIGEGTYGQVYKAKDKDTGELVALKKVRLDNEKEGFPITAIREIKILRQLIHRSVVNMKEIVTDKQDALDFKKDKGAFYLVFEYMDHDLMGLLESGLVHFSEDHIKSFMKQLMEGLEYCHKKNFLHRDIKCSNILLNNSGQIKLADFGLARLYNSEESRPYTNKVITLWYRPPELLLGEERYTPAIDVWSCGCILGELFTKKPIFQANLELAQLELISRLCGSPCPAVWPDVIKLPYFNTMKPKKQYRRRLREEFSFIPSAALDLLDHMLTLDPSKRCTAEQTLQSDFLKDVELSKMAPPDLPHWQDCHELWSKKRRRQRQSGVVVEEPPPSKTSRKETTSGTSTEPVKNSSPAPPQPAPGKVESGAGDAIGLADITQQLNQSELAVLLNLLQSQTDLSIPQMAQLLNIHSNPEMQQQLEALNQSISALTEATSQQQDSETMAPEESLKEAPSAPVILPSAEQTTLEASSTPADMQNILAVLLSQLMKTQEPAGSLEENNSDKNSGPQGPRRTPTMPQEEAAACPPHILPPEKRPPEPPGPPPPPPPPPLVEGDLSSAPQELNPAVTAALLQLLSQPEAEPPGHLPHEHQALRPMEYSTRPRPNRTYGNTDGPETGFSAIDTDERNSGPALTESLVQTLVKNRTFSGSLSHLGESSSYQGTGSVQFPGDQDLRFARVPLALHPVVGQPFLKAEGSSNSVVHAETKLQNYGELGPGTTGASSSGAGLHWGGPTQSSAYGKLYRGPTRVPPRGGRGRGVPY

[4] = test system: Casein kinase I isoform gamma-3 (Homo sapiens), Q9Y6M4 [UNDEFINED MUTATION]; assay: Inhibition of recombinant human CK1gamma3 K91E/R174G/E302D mutant (1 to 330 residues) assessed as residual activity at 10 uM using KRRRALS(p)VASLPGL as substrate incubated for 40 mins in presence of [gamma-33ATP] by scintillation counting based radiometry assay relative to control
[5] = target: Dual specificity protein kinase CLK2 (Homo sapiens) (UniProt P49760); assay: Inhibition of recombinant human CLK2 (138 to end residues) assessed as residual activity at 10 uM using YRRAAVPPSPSLSRHSSPHQS(p)EDEEE as substrate incubated 40 mins in presence of [gamma-33ATP] by scintillation counting based radiometry assay relative to control
Sequence of Dual specificity protein kinase CLK2 (Homo sapiens) (P49760 whole entry, looked up, the tested form may be a part): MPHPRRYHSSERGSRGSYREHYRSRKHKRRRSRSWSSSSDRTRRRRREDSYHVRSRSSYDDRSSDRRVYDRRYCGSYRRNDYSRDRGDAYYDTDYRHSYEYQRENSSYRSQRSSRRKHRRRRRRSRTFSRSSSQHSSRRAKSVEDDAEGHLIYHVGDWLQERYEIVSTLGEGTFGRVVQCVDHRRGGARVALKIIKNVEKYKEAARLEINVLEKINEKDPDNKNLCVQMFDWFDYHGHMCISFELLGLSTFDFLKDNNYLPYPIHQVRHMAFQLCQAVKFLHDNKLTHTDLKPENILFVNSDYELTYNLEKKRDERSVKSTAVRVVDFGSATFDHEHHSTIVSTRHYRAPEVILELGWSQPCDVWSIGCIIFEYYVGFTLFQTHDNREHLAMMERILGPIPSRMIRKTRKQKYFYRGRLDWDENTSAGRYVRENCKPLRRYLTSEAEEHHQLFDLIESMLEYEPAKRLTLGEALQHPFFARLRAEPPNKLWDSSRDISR

[6] = target: Fibroblast growth factor receptor 2 (Homo sapiens) (UniProt P21802); assay: Inhibition of recombinant human FGFR2 (456 to 770 residues) assessed as residual activity at 10 uM using poly(Glu, Tyr) 4:1 as substrate at 40 mins in presence of [gamma-33ATP] by scintillation counting based radiometry assay relative to control
[7] = target: Beta-adrenergic receptor kinase 1 (Homo sapiens) (UniProt P25098); assay: Inhibition of recombinant full length human GRK2 assessed as residual activity at 10 uM using casein as substrate at 40 mins in presence of [gamma-33ATP] by scintillation counting based radiometry assay relative to control
[8] = target: Leukocyte tyrosine kinase receptor (Homo sapiens) (UniProt P29376); assay: Inhibition of recombinant human LTK (450 to end residues) assessed as residual activity at 10 uM using GEEPLYWSFPAKK as substrate after 40 mins in presence of [gamma-33ATP] by scintillation counting based radiometry assay relative to control
Homo sapiens = species on record: Homo sapiens; assay: Inhibition of human MAPK2 assessed as residual activity at 10 uM relative to control
[9] = target: MAPK/MAK/MRK overlapping kinase (Homo sapiens) (UniProt Q9UQ07); assay: Inhibition of recombinant human MOK (1 to 343 residues) assessed as residual activity at 10 uM using RSRSRSRSRSRSR as substrate incubated for 40 mins in presence of [gamma-33ATP by scintillation counting based radiometry assay relative to control
[10] = target: Serine/threonine-protein kinase 38-like (Homo sapiens) (UniProt Q9Y2H1); assay: Inhibition of recombinant human NDR2 (83 to end residues) assessed as residual activity at 10 uM using RSRSRSRSRSRSRSR as substrate measured after 40 mins in presence of [gamma33P]ATP by scintillation counting based radiometry assay relative to control
Sequence of Serine/threonine-protein kinase 38-like (Homo sapiens) (Q9Y2H1 2-464 limits assumed): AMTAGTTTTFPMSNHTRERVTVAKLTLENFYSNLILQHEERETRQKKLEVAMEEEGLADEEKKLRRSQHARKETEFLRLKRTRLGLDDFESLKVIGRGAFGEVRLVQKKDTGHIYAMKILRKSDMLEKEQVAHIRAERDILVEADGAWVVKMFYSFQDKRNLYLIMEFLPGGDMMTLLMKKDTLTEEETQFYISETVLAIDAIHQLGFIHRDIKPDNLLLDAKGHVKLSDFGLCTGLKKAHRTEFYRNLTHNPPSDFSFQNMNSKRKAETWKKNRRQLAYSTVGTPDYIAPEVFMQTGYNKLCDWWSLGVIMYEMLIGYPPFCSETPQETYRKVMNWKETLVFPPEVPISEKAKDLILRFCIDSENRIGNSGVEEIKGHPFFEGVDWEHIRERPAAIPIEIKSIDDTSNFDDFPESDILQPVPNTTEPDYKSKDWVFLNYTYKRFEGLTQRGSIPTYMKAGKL

[11] = target: Serine/threonine-protein kinase Nek11 (Homo sapiens) (UniProt Q8NG66); assay: Inhibition of recombinant full length human NEK11 assessed as residual activity at 10 uM using myelin basic protein as substrate measured after 40 mins in presence of [gamma33P]ATP by scintillation counting based radiometry assay relative to control
Sequence of Serine/threonine-protein kinase Nek11 (Homo sapiens) (Q8NG66 whole entry): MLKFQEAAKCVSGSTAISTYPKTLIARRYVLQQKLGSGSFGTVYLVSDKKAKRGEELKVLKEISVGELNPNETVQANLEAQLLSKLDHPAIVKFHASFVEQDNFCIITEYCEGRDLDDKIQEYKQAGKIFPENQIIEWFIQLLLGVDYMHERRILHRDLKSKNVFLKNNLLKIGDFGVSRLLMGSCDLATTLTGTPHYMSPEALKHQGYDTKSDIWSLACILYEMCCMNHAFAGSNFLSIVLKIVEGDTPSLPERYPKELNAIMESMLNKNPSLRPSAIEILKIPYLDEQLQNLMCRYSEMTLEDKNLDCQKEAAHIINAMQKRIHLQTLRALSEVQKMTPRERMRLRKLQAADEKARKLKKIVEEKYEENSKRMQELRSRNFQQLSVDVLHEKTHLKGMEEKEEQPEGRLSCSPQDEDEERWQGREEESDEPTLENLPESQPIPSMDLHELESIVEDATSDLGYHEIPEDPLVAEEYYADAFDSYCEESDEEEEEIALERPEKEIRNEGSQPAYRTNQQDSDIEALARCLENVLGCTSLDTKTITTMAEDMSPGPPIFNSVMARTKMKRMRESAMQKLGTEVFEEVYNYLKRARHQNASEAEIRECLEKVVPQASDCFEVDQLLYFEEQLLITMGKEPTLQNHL

[12] = target: 3-phosphoinositide-dependent protein kinase 1 (Homo sapiens) (UniProt O15530); assay: Inhibition of recombinant human PDK1 (52 to end residues) assessed as residual activity at 10 uM using PDKtide as substrate incubated for 40 mins in presence of [gamma33P]ATP by scintillation counting based radiometry assay relative to control
[13] = target: Protein kinase C beta type (Homo sapiens) (UniProt P05771); assay: Inhibition of recombinant human PKCbeta1 (2 to end residues) assessed as residual activity at 10 uM using histone H1 as substrate incubated for 40 mins in presence of [gamma33P]ATP by scintillation counting based radiometry assay relative to control
[14] = target: Protein kinase C iota type (Homo sapiens) (UniProt P41743); assay: Inhibition of recombinant full-length human PKCiota assessed as residual activity at 10 uM using ERMRPRKRQGSVRRRV as substrate incubated for 40 mins in presence of [gamma33P]ATP by scintillation counting based radiometry assay relative to control
[15] = target: Ribosomal protein S6 kinase alpha-2 (Homo sapiens) (UniProt Q15349); assay: Inhibition of recombinant full length human Rsk3 assessed as residual activity at 10 uM using KKKNRTLSVA as substrate incubated for 40 mins in presence of [gamma33P]ATP by scintillation counting based radiometry assay relative to control
[16] = target: Serine/threonine-protein kinase SBK1 (Homo sapiens) (UniProt Q52WX2); assay: Inhibition of recombinant full-length human SBK1 assessed as residual activity at 10 uM using KKLRRTLSVA as substrate incubated for 120 mins in presence of [gamma33P]ATP by scintillation counting based radiometry assay relative to control
Sequence of Serine/threonine-protein kinase SBK1 (Homo sapiens) (Q52WX2 whole entry): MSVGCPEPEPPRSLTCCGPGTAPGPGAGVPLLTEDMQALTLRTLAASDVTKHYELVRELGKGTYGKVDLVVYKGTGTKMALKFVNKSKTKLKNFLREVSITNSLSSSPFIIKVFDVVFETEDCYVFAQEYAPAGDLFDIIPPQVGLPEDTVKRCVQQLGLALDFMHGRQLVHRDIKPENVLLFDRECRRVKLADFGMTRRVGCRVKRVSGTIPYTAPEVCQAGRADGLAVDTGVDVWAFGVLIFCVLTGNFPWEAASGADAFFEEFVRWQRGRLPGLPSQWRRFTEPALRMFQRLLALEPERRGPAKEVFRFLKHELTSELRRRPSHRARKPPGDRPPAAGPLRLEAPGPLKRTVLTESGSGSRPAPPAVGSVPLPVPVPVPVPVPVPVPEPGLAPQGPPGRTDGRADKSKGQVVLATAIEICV

[17] = test system: Serine/threonine-protein kinase Sgk1 (Homo sapiens), O00141 [S422D]; assay: Inhibition of recombinant human SGK S422D mutant (60 to end residues) assessed as residual activity at 10 uM using GRPRTSSFAEGKK as substrate incubated for 40 mins in presence of [gamma33P]ATP by scintillation counting based radiometry assay relative to control
Sequence of Serine/threonine-protein kinase Sgk1 (Homo sapiens), O00141 [S422D] (O00141 whole entry S422D): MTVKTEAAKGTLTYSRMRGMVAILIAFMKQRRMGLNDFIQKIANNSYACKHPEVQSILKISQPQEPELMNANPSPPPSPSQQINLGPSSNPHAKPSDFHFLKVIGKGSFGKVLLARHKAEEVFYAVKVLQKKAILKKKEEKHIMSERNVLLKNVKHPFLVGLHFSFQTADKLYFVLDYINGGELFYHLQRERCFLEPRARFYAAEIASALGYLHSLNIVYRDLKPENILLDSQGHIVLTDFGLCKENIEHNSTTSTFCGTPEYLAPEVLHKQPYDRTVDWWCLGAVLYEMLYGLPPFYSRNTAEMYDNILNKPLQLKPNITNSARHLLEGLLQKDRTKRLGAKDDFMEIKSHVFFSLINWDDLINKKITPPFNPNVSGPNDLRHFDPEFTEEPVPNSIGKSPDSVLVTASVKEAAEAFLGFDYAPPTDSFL

[18] = test system: Serine/threonine-protein kinase Sgk2 (Homo sapiens), Q9HBY8 [S416D]; assay: Inhibition of recombinant human SGK2 S416D mutant (54 to end residues) assessed as residual activity at 10 uM using GRPRTSSFAEGKK as substrate incubated for 40 mins in presence of [gamma33P]ATP by scintillation counting based radiometry assay relative to control
Mus musculus = species on record: Mus musculus; assay: Inhibition of recombinant full length mouse PI3K p110/p85 assessed as residual activity at 10 uM using phosphatidylinositol-4, 5-bisphosphate as substrate incubated for 40 mins in presence of [gamma33P]ATP by scintillation counting based radiometry assay relative to control
[19] = target: Dual specificity mitogen-activated protein kinase kinase 4 (Mus musculus) (UniProt P47809); assay: Inhibition of recombinant mouse MKK4 (34 to end residues) assessed as residual activity at 10 uM using poly(Glu, Tyr) 4:1 as substrate incubated for 40 mins in presence of [gamma-33ATP] by scintillation counting based radiometry assay relative to control
Sequence of Dual specificity mitogen-activated protein kinase kinase 4 (Mus musculus) (P47809 whole entry): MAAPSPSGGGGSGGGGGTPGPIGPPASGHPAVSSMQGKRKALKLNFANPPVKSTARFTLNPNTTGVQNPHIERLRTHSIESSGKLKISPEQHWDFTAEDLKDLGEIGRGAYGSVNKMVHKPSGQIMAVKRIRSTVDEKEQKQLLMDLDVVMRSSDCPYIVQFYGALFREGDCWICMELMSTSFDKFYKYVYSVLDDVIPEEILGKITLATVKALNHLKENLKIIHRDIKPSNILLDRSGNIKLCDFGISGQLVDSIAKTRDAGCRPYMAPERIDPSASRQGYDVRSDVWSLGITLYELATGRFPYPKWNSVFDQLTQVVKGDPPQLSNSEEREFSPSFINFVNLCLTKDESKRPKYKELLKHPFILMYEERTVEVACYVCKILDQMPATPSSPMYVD

C[C@@H](c1ccccc1)n1nnc2cnc3ccc(-c4cnc5[nH]ccc5c4)cc3c21
Activity [1]: 36%
Activity [2]: 72%
Activity [3]: 83%
Activity [4]: 45%
Activity [5]: 30%
Activity [6]: 32%
Activity [7]: 92%
Activity [8]: 39%
Activity (Homo sapiens): 93%
Activity [9]: 99%
Activity [10]: 89%
Activity [11]: 103%
Activity [12]: 80%
Activity [13]: 110%
Activity [14]: 81%
Activity [15]: 93%
Activity [16]: 113%
Activity [17]: 52%
Activity [18]: 36%
Activity (Mus musculus): 4 to 12%
Activity [19]: 129%
